Patent publication US20090306062A1, “2,5-Disubstituted Piperidines” (priority 2006, published 2009)

Molecular target: T1, renin (Homo sapiens, UniProt P00797)
T1 construct: This test measures the formation of angiotensin I in human plasma; from tissue; host or cells: human plasma
T1 sequence (P00797 67-406): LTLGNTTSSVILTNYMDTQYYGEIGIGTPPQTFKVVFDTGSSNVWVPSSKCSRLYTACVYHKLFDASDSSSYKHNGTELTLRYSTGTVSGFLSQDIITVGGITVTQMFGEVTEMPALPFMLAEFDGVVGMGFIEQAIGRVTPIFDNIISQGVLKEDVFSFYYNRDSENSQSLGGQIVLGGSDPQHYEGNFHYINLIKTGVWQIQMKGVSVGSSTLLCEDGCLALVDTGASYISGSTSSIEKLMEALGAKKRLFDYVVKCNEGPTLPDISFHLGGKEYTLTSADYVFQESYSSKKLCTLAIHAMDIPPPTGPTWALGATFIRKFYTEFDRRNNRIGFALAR
Assay: in vitro test according to Nussberger et al.: formation of angiotensin I in human plasma, radioimmunoassay
Type: biochemical
Details: range stated for the listed examples together, read-out: IC50, inhibition of the formation of angiotensin I
Method: One experimental method of detecting the action of renin inhibitors is by means of in vitro tests, in which the reduction of the formation of angiotensin I in different systems (human plasma, purified human renin together with synthetic or natural renin substrate) is measured. One in vitro test which is used is the one according to Nussberger et al. (1987) J. Cardiovascular Pharmacol., Vol. 9, p. 39-44 which follows. This test measures the formation of angiotensin I in human plasma. The amount of angiotensin I formed is determined in a subsequent radioimmunoassay. Which action inhibitors have on the formation of angiotensin I is tested in this system by the addition of different concentrations of these substances. The IC50 refers to that concentration of the particular inhibitor which reduces the formation of angiotensin I by 50%.

SMILES	IC50
COCCCN1CCOc2ccc(CO[C@@H]3CC[C@@H](CC(C)(C)C(=O)NCC4CC4)NC3)cc21 [Example 25, N-Cyclopropylmethyl-3-{(2S,5R)-5-[4-(3-methoxypropyl)-3,4-dihydro-2H-benzo[1,4]oxazin-6-ylmethoxy]piperidin-2-yl}-2,2-dimethylpropionamide]	0.074 to 2.8 µM
COCCCN1CCOc2ccc(CO[C@@H]3CC[C@@H](CC(C)(C)C(=O)NCC(C)(C)C(N)=O)NC3)cc21 [Example 26, N-(2-Carbamoyl-2-methylpropyl)-3-{(2S,5R)-5-[4-(3-methoxypropyl)-3,4-dihydro-2H-benzo[1,4]oxazin-6-ylmethoxy]piperidin-2-yl}-2,2-dimethylpropionamide]	0.074 to 2.8 µM
COCCCOc1cc(CO[C@@H]2CC[C@@H](CC(C)(C)C(=O)NCC3CCOCC3)NC2)ccc1F [Example 42, 3-{(2S,5R)-5-[4-Fluoro-3-(3-methoxypropoxy)benzyloxy]piperidin-2-yl}-2,2-dimethyl-N-(tetrahydropyran-4-ylmethyl)propionamide]	0.074 to 2.8 µM
COCCCN1C(=O)[C@](C)(c2ccccc2)Oc2ccc(CO[C@@H]3CC[C@@H](CC(C)(C)C(=O)NCC4CCOCC4)NC3)cc21 [Example 52, (S)-3-{(2S,5R)-5-[(S)-4-(3-Methoxypropyl)-2-methyl-3-oxo-2-phenyl-3,4-dihydro-2H-benzo[1,4]oxazin-6-ylmethoxy]piperidin-2-yl}-2,2-dimethyl-N-(tetrahydropyran-4-ylmethyl)propionamide]	0.074 to 2.8 µM
COCCCN1CCOc2ccc(CO[C@@H]3CC[C@@H](C[C@@H](NC(=O)CC4CCOCC4)C(C)C)NC3)cc21 [Example 89, N—((R(or S))-1-{(2S,5R)-5-[4-(3-Methoxypropyl)-3,4-dihydro-2H-benzo[1,4]oxazin-6-ylmethoxy]piperidin-2-ylmethyl}-2-methylpropyl)-2-(tetrahydropyran-4-yl)acetamide]	0.074 to 2.8 µM
